Consider ten molecules from patent publication US4032659A (priority 1975, dated 1977).

“Also recorded” adds a separate entry of the source.

The test system of the data set is Influenza Ann Arbor virus. Description: Chemoprophylaxis of Influenza Ann Arbor (A1) virus infection in mice. Format: in vivo, mouse. The following applies: oral.

With `CCCC(C)=NNC(N)=S` [2-pentanone, thiosemicarbazone], the “No. animals surviving after 6 days” value reads like this: (total dose 30 pg) 2; (total dose 300 pg) 2; (total dose 3 ng) 2; (total dose 30 ng) 2; (total dose 300 ng) 1; (total dose 3 μg) 1. Further, the “No. animals surviving after 6 days” value runs as follows: (total dose 30 μg) 1; (total dose 300 μg) 0. Further, the Survivors runs as follows: (total dose 30 pg) 0; (total dose 300 pg) 0; (total dose 3 ng) 0; (total dose 15 ng) 0; (total dose 22.5 ng) 0; (total dose 30 ng) 0. The Survivors runs as follows: (total dose 75 ng) 0; (total dose 150 ng) 0; (total dose 225 ng) 0; (total dose 300 ng) 0; (total dose 750 ng) 0; (total dose 1.5 μg) 0. The Survivors is, setting by setting: (total dose 2.25 μg) 1; (total dose 3 μg) 0; (total dose 30 μg) 1; (total dose 300 μg) 0. Moreover, the “No. animals surviving after 7 days” value came out at 3 (total dose 15 ng); 0 (total dose 22.5 ng); 1 (total dose 75 ng); 0 (total dose 150 ng); 3 (total dose 225 ng); 2 (total dose 750 ng). The “No. animals surviving after 7 days” value runs as follows: (total dose 1.5 μg) 2; (total dose 2.25 μg) 1.

Consider `CCC(C)=NNC(=N)N.O=[N+]([O-])O` [1-(sec-butylideneamino)guanidine, nitrate], for which the “No. animals surviving after 7 days” value stood at 0 (total dose 3 ng); 1 (total dose 30 ng); 3 (total dose 300 ng); 0 (total dose 3 μg); 2 (total dose 30 μg); 0 (total dose 300 μg). For the same molecule, the Survivors runs as follows: (total dose 3 ng) 0; (total dose 30 ng) 0; (total dose 300 ng) 2; (total dose 3 μg) 0; (total dose 30 μg) 2; (total dose 300 μg) 0.

As for `CCOC(=O)CC(C)=NNC(N)=S` [acetoacetic acid, ethyl ester, thiosemicarbazone], the “No. animals surviving after 5 days” value (total dose 30 pg) is listed as 8; the “No. animals surviving after 5 days” value (total dose 300 pg) amounted to 4; the “No. animals surviving after 5 days” value (total dose 3 ng) came to 5; the “No. animals surviving after 5 days” value (total dose 30 ng) is reported as 5; the “No. animals surviving after 5 days” value (total dose 300 ng) amounted to 4; the “No. animals surviving after 5 days” value (total dose 3 μg) is on record as 6. The “No. animals surviving after 5 days” value by setting is: (total dose 30 μg) 8; (total dose 300 μg) 7; (total dose 3 mg) 5. Besides, the Survivors reads like this: (total dose 30 pg) 0; (total dose 300 pg) 0; (total dose 3 ng) 0; (total dose 30 ng) 0; (total dose 300 ng) 0; (total dose 3 μg) 0. The Survivors reads like this: (total dose 30 μg) 0; (total dose 300 μg) 0; (total dose 3 mg) 0.

`C=CCNC(=S)NN=C1Cc2ccccc2C1` [2-Indanone, 4-allylthiosemicarbazone]: the “No. animals surviving after 7 days” value (total dose 30 pg) turned out to be 4; the “No. animals surviving after 7 days” value (total dose 300 pg) was 7; the “No. animals surviving after 7 days” value (total dose 3 ng) is recorded as 4; the “No. animals surviving after 7 days” value (total dose 30 ng) turned out to be 6; the “No. animals surviving after 7 days” value (total dose 300 ng) was found to be 6; the “No. animals surviving after 7 days” value (total dose 3 μg) is on record as 2. The “No. animals surviving after 7 days” value by setting is: (total dose 30 μg) 6; (total dose 300 μg) 2; (total dose 3 mg) 4. Also, the Survivors is, setting by setting: (total dose 30 pg) 0; (total dose 300 pg) 0; (total dose 3 ng) 0; (total dose 30 ng) 0; (total dose 300 ng) 0; (total dose 3 μg) 0. Also, the Survivors is, setting by setting: (total dose 30 μg) 0; (total dose 300 μg) 0; (total dose 3 mg) 1.

With `CCC(CC)=NNC(N)=S` [3-pentanone, thiosemicarbazone], the “No. animals surviving after 6 days” value is, setting by setting: (total dose 30 pg) 2; (total dose 300 pg) 1; (total dose 3 ng) 3; (total dose 30 ng) 0; (total dose 300 ng) 3; (total dose 3 μg) 6. Also, the “No. animals surviving after 6 days” value reads like this: (total dose 30 μg) 7; (total dose 300 μg) 4. The Survivors worked out at 0 (total dose 30 pg); 0 (total dose 300 pg); 0 (total dose 3 ng); 0 (total dose 30 ng); 0 (total dose 300 ng); 1 (total dose 3 μg). The Survivors worked out at 0 (total dose 12 μg); 1 (total dose 18 μg); 0 (total dose 24 μg); 0 (total dose 30 μg); 0 (total dose 60 μg); 0 (total dose 90 μg). Further, the Survivors runs as follows: (total dose 120 μg) 1; (total dose 150 μg) 1; (total dose 300 μg) 0. For the same molecule, the “No. animals surviving after 7 days” value stood at 1 (total dose 12 μg); 1 (total dose 18 μg); 0 (total dose 24 μg); 1 (total dose 60 μg); 3 (total dose 90 μg); 1 (total dose 120 μg). Moreover, under “total dose 150 μg”, the “No. animals surviving after 7 days” value came to 2.

As to `NC(N)=S` [Thiourea], the “No. animals surviving after 7 days” value (total dose 30 pg) is on record as 2; the “No. animals surviving after 7 days” value (total dose 300 pg) is recorded as 4; the “No. animals surviving after 7 days” value (total dose 3 ng) worked out at 3; the “No. animals surviving after 7 days” value (total dose 30 ng) turned out to be 4; the “No. animals surviving after 7 days” value (total dose 300 ng) turned out to be 2; the “No. animals surviving after 7 days” value (total dose 3 μg) is 7. For the same molecule, the “No. animals surviving after 7 days” value runs as follows: (total dose 30 μg) 3; (total dose 300 μg) 6; (total dose 3 mg) 5. Also, the Survivors reads like this: (total dose 30 pg) 0; (total dose 300 pg) 0; (total dose 3 ng) 1; (total dose 30 ng) 0; (total dose 300 ng) 0; (total dose 3 μg) 0. The Survivors is reported as 0 (total dose 30 μg), 1 (total dose 300 μg) and 0 (total dose 3 mg).

Consider `CN(C)N` [1,1-dimethylhydrazine], for which the “No. animals surviving after 6 days” value is reported as 5 (total dose 30 pg); 3 (total dose 300 pg); 3 (total dose 3 ng); 2 (total dose 30 ng); 3 (total dose 300 ng); 2 (total dose 3 μg). For the same molecule, the “No. animals surviving after 6 days” value reads like this: (total dose 30 μg) 1; (total dose 300 μg) 3; (total dose 3 mg) 2. Moreover, the Survivors runs as follows: (total dose 30 pg) 0; (total dose 300 pg) 0; (total dose 3 ng) 1; (total dose 30 ng) 0; (total dose 300 ng) 0; (total dose 3 μg) 0. Also, the Survivors reads like this: (total dose 30 μg) 1; (total dose 300 μg) 0; (total dose 3 mg) 0.

Regarding `CNN` [Methylhydrazine, methylhydrazine], the “No. animals surviving after 6 days” value (total dose 30 pg) is given as 2; the “No. animals surviving after 6 days” value (total dose 300 pg) was 3; the “No. animals surviving after 6 days” value (total dose 3 ng) worked out at 3; the “No. animals surviving after 6 days” value (total dose 30 ng) is recorded as 4; the “No. animals surviving after 6 days” value (total dose 300 ng) was found to be 1; the “No. animals surviving after 6 days” value (total dose 3 μg) was 3. Moreover, the “No. animals surviving after 6 days” value (total dose 30 μg) came out at 3 and the “No. animals surviving after 6 days” value (total dose 300 μg) stood at 1. Moreover, the Survivors runs as follows: (total dose 30 pg) 1; (total dose 300 pg) 0; (total dose 3 ng) 1; (total dose 30 ng) 1; (total dose 300 ng) 0; (total dose 3 μg) 0. Also, the Survivors was found to be 1 (total dose 30 μg) and 0 (total dose 300 μg). Also, the Toxicity entry (total dose 3 mg) is given as “Toxic; also recorded: Toxic?”.

On to `Cc1ccccc1NC(=S)NN=C1CCCC1` [cyclopentanone, 3-thio-4-o-tolylsemicarbazone], for which the “No. animals surviving after 5 days” value is, setting by setting: (total dose 30 pg) 6; (total dose 300 pg) 9; (total dose 3 ng) 9; (total dose 30 ng) 9; (total dose 300 ng) 6; (total dose 3 μg) 6. Also, the “No. animals surviving after 5 days” value was found to be 9 (total dose 300 μg) and 8 (total dose 3 mg). Moreover, the Survivors is, setting by setting: (total dose 30 pg) 0; (total dose 300 pg) 0; (total dose 3 ng) 0; (total dose 300 ng) 0; (total dose 3 μg) 0; (total dose 30 μg) 0. Also, the Survivors is listed as 0 (total dose 300 μg) and 0 (total dose 3 mg).

For the molecule `NC(N)=NN=Cc1c(Cl)cccc1Cl` [[(2,6-dichlorobenzylidine)amino]guanidine acetate], the “No. animals surviving after 6 days” value runs as follows: (total dose 30 pg) 4; (total dose 300 pg) 2; (total dose 3 ng) 4; (total dose 30 ng) 1; (total dose 300 ng) 1; (total dose 3 μg) 2. Besides, the “No. animals surviving after 6 days” value is, setting by setting: (total dose 30 μg) 3; (total dose 300 μg) 1. Besides, the Survivors is, setting by setting: (total dose 30 pg) 0; (total dose 300 pg) 1; (total dose 3 ng) 0; (total dose 30 ng) 0; (total dose 300 ng) 0; (total dose 3 μg) 0. For the same molecule, the Survivors turned out to be 0 (total dose 30 μg) and 0 (total dose 300 μg). The Toxicity entry (total dose 3 mg) is reported as “Toxic”.
